Reference: ChEMBL document CHEMBL1201862, “PubChem BioAssay data set” (2004)
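Five compound concentrations were applied to cells in 96-well plates for 48 hours; endpoints were derived by simple linear interpolation of the resulting dose-response curve. GI50 marks 50% less growth.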 Calls of active or inactive are those of the source. Rule as the data show it: active = GI50 up to about 1.1 µM and inactive = higher.

How the values were obtained:
Assay in all cases: NCI tumour cell line growth inhibition, 48 h
MCF7 = system: MCF7
SF-539 = system: SF-539
CCRF-CEM = system: CCRF-CEM
HT-29 = system: HT-29
SN12C = system: SN12C
SR = system: SR
NCI-H522 = system: NCI-H522
SK-OV-3 = system: SK-OV-3
RPMI-8226 = system: RPMI-8226
RXF 393 = system: RXF 393
NCI/ADR-RES = system: NCI/ADR-RES
HOP-62 = system: HOP-62
OVCAR-5 = system: OVCAR-5
A549 = system: A549
SK-MEL-28 = system: SK-MEL-28
LOX IMVI = system: LOX IMVI
OVCAR-4 = system: OVCAR-4
HCT-116 = system: HCT-116
786-0 = system: 786-0
HOP-92 = system: HOP-92

Compound | GI50 (MCF7) | GI50 (SF-539) | GI50 (CCRF-CEM) | GI50 (HT-29) | GI50 (SN12C) | GI50 (SR) | GI50 (NCI-H522) | GI50 (SK-OV-3) | GI50 (RPMI-8226) | GI50 (RXF 393) | GI50 (NCI/ADR-RES) | GI50 (HOP-62) | GI50 (OVCAR-5) | GI50 (A549) | GI50 (SK-MEL-28) | GI50 (LOX IMVI) | GI50 (OVCAR-4) | GI50 (HCT-116) | GI50 (786-0) | GI50 (HOP-92)
O=C(O)C1(Cc2ccccc2)Cc2ccccc2C1 | > 100 µM (inactive) | > 100 µM (inactive) | > 100 µM (inactive) | > 100 µM (inactive) | > 100 µM (inactive) | > 100 µM (inactive) | > 100 µM (inactive) | > 100 µM (inactive) | > 100 µM (inactive) | 69.7 µM (inactive) | > 100 µM (inactive) | > 100 µM (inactive) | > 100 µM (inactive) | > 100 µM (inactive) | > 100 µM (inactive) | > 100 µM (inactive) | > 100 µM (inactive) | > 100 µM (inactive) | – | –
COc1cccc2c1OCC1Cc3ccccc3OC21 (centres undefined) | 38.1 µM (inactive) | 41.6 µM (inactive) | 54.1 µM (inactive) | 57.4 µM (inactive) | 27.7 µM (inactive) | 59.3 µM (inactive) | > 100 µM (inactive) | 92.3 µM (inactive) | 47.6 µM (inactive) | – | 33.4 µM (inactive) | 36.2 µM (inactive) | > 100 µM (inactive) | 35.1 µM (inactive) | – | 33.3 µM (inactive) | – | 33.6 µM (inactive) | 35.6 µM (inactive) | –
CCN(CC)c1ccc2cc(C(=O)Nc3ccccc3OC)c(=N)oc2c1 | 16.3 µM (inactive) | 46.6 µM (inactive) | 2.89 µM (inactive) | 12.9 µM (inactive) | – | 5.16 µM (inactive) | 10.4 µM (inactive) | 72.3 µM (inactive) | 15.9 µM (inactive) | – | 23.7 µM (inactive) | 12 µM (inactive) | 44.3 µM (inactive) | 21.8 µM (inactive) | 32.9 µM (inactive) | 22.9 µM (inactive) | 27.5 µM (inactive) | 15.4 µM (inactive) | 14.7 µM (inactive) | –
CCC(C)C(=O)OC1C(=O)OC2CC3C(C)=CC(=O)C(O)C3(C)C3C4(O)OCC23C1C(C)C4O (centres undefined) | < 0.01 µM (active) | < 0.01 µM (active) | < 0.0131 µM (active) | – | 0.0632 µM (active) | – | < 0.0105 µM (active) | 0.392 µM (active) | < 0.0111 µM (active) | – | 0.347 µM (active) | < 0.019 µM (active) | 0.0776 µM (active) | 0.155 µM (active) | < 0.0164 µM (active) | < 0.01 µM (active) | 0.0314 µM (active) | < 0.01 µM (active) | < 0.0166 µM (active) | 0.0208 µM (active)
N#CCCN(CCCN(C(=O)N(c1ccccc1)c1ccccc1)c1ccccc1)C(=O)Nc1ccccc1 | 18.2 µM (inactive) | > 100 µM (inactive) | 15.9 µM (inactive) | 32.3 µM (inactive) | – | – | 58.3 µM (inactive) | > 100 µM (inactive) | 94 µM (inactive) | > 100 µM (inactive) | 30.1 µM (inactive) | > 100 µM (inactive) | > 100 µM (inactive) | 18.9 µM (inactive) | > 100 µM (inactive) | > 100 µM (inactive) | 95.1 µM (inactive) | 29.6 µM (inactive) | > 100 µM (inactive) | > 100 µM (inactive)
O=C(c1ccco1)N(C(=O)N1CCC(c2ccccc2)CC1)c1ccccc1 | 66.5 µM (inactive) | 74.5 µM (inactive) | 26.5 µM (inactive) | 47.6 µM (inactive) | > 100 µM (inactive) | – | – | 81.5 µM (inactive) | 17.4 µM (inactive) | 34 µM (inactive) | 23.2 µM (inactive) | – | > 100 µM (inactive) | – | 62.7 µM (inactive) | 59.7 µM (inactive) | – | 42.7 µM (inactive) | 92.9 µM (inactive) | –
COC(=O)c1cn(CCCC(=O)O)nn1 | > 100 µM (inactive) | > 100 µM (inactive) | > 100 µM (inactive) | > 100 µM (inactive) | > 100 µM (inactive) | – | – | – | – | > 100 µM (inactive) | > 100 µM (inactive) | > 100 µM (inactive) | – | > 100 µM (inactive) | > 100 µM (inactive) | > 100 µM (inactive) | > 100 µM (inactive) | > 100 µM (inactive) | > 100 µM (inactive) | > 100 µM (inactive)
CCOC(=O)NC(Nc1cc(Cl)ccc1OC)(C(F)(F)F)C(F)(F)F | > 100 µM (inactive) | > 100 µM (inactive) | 25.9 µM (inactive) | > 100 µM (inactive) | > 100 µM (inactive) | 74.3 µM (inactive) | 64 µM (inactive) | > 100 µM (inactive) | > 100 µM (inactive) | 68.9 µM (inactive) | – | > 100 µM (inactive) | > 100 µM (inactive) | > 100 µM (inactive) | > 100 µM (inactive) | > 100 µM (inactive) | – | > 100 µM (inactive) | – | > 100 µM (inactive)
O=C(CCO)OCCCCCC/C=C\CCCCCC/C=C\CCCCCCCCOC(=O)CCO | 15.7 µM (inactive) | > 100 µM (inactive) | 3.05 µM (inactive) | 17.7 µM (inactive) | 17.2 µM (inactive) | – | 16.5 µM (inactive) | 19.9 µM (inactive) | – | 18.9 µM (inactive) | 17.9 µM (inactive) | 17.1 µM (inactive) | 18.3 µM (inactive) | 15.9 µM (inactive) | 19.5 µM (inactive) | 18.4 µM (inactive) | 25.3 µM (inactive) | 16.3 µM (inactive) | 18.5 µM (inactive) | 18.2 µM (inactive)
Cc1c(/N=C/C=C/c2ccccc2)c(=O)n(-c2ccccc2)n1C | 21.9 µM (inactive) | 23 µM (inactive) | 6.87 µM (inactive) | 27.5 µM (inactive) | 16.1 µM (inactive) | – | 50.8 µM (inactive) | > 100 µM (inactive) | 14.3 µM (inactive) | 39.7 µM (inactive) | 25.9 µM (inactive) | 33.3 µM (inactive) | 58.9 µM (inactive) | > 100 µM (inactive) | 14.6 µM (inactive) | 4.86 µM (inactive) | 13 µM (inactive) | 13.7 µM (inactive) | – | 30.3 µM (inactive)
COc1cc(C2=C(C#N)C(N)OC3=C2COc2ccccc23)cc(OC)c1OC (centres undefined) | > 100 µM (inactive) | 20.4 µM (inactive) | 0.938 µM (active) | 77.1 µM (inactive) | 16.1 µM (inactive) | 19.5 µM (inactive) | – | 16.4 µM (inactive) | 46.6 µM (inactive) | – | 25.2 µM (inactive) | 6.62 µM (inactive) | > 100 µM (inactive) | 17.5 µM (inactive) | 24.8 µM (inactive) | 35.5 µM (inactive) | 5.22 µM (inactive) | 16.7 µM (inactive) | – | 40.8 µM (inactive)
S=C1SC(=N\c2ccccc2)/C(=N/c2ccccc2)N1c1ccc2ccccc2c1 | > 100 µM (inactive) | – | > 100 µM (inactive) | – | > 100 µM (inactive) | > 100 µM (inactive) | > 100 µM (inactive) | > 100 µM (inactive) | > 100 µM (inactive) | 7.26 µM (inactive) | > 100 µM (inactive) | > 100 µM (inactive) | > 100 µM (inactive) | – | > 100 µM (inactive) | – | 80.7 µM (inactive) | 12.1 µM (inactive) | – | –
